Columns and labels:
Staphylococcus aureus [1] = test: Antibacterial activity against methicillin-resistant Staphylococcus aureus clinical isolate M-5 incubated for 16 to 18 hrs CLSI based by microbroth dilution assay; assay type: functional; conditions: time 16-18 hrs
Escherichia coli = test: Antibacterial activity against Escherichia coli ATCC 25922 incubated for 16 to 18 hrs CLSI based by microbroth dilution assay; assay type: functional; conditions: time 16-18 hrs
Staphylococcus aureus [2] = test: Antibacterial activity against methicillin-resistant Staphylococcus aureus clinical isolate M-3 incubated for 16 to 18 hrs CLSI based by microbroth dilution assay; assay type: functional; conditions: time 16-18 hrs
[3] = Hemolytic activity in sheep erythrocytes incubated for 1 hr by absorbance based assay; assay type: toxicity, cell-based, Ovis aries, Erythrocyte
Staphylococcus aureus [4] = test: Antibacterial activity against methicillin-resistant Staphylococcus aureus clinical isolate M-6 incubated for 16 to 18 hrs CLSI based by microbroth dilution assay; assay type: functional; conditions: time 16-18 hrs
[5] = Selectivity index, ratio of HC50 for sheep erythrocytes to MIC for Staphylococcus aureus ATCC 29213; assay type: toxicity; conditions: read-out: Selectivity Index
Staphylococcus aureus [6] = test: Antibacterial activity against methicillin-resistant Staphylococcus aureus clinical isolate M-9 incubated for 16 to 18 hrs CLSI based by microbroth dilution assay; assay type: functional; conditions: time 16-18 hrs
Staphylococcus aureus [7] = test: Antibacterial activity against methicillin-resistant Staphylococcus aureus clinical isolate M-8 incubated for 16 to 18 hrs CLSI based by microbroth dilution assay; assay type: functional; conditions: time 16-18 hrs
Staphylococcus aureus [8] = test: Antibacterial activity against methicillin-resistant Staphylococcus aureus clinical isolate M-2 incubated for 16 to 18 hrs CLSI based by microbroth dilution assay; assay type: functional; conditions: time 16-18 hrs
Staphylococcus aureus [9] = test: Antibacterial activity against methicillin-resistant Staphylococcus aureus clinical isolate M-10 incubated for 16 to 18 hrs CLSI based by microbroth dilution assay; assay type: functional; conditions: time 16-18 hrs
Staphylococcus aureus [10] = test: Antibacterial activity against methicillin-resistant Staphylococcus aureus clinical isolate M-7 incubated for 16 to 18 hrs CLSI based by microbroth dilution assay; assay type: functional; conditions: time 16-18 hrs
Staphylococcus aureus [11] = test: Antibacterial activity against methicillin-resistant Staphylococcus aureus clinical isolate M-1 incubated for 16 to 18 hrs CLSI based by microbroth dilution assay; assay type: functional; conditions: time 16-18 hrs
Staphylococcus aureus [12] = test: Antibacterial activity against Staphylococcus aureus ATCC 29213 incubated for 16 to 18 hrs CLSI based by microbroth dilution assay; assay type: functional; conditions: time 16-18 hrs
Staphylococcus aureus [13] = test: Antibacterial activity against methicillin-resistant Staphylococcus aureus clinical isolate M-4 incubated for 16 to 18 hrs CLSI based by microbroth dilution assay; assay type: functional; conditions: time 16-18 hrs

SMILES | MIC (Staphylococcus aureus [1]) | MIC (Escherichia coli) | MIC (Staphylococcus aureus [2]) | HC50 at 1 h [3] | MIC (Staphylococcus aureus [4]) | selectivity ratio [5] | MIC (Staphylococcus aureus [6]) | MIC (Staphylococcus aureus [7]) | MIC (Staphylococcus aureus [8]) | MIC (Staphylococcus aureus [9]) | MIC (Staphylococcus aureus [10]) | MIC (Staphylococcus aureus [11]) | MIC (Staphylococcus aureus [12]) | MIC (Staphylococcus aureus [13])
CCCCN(CCCC)C(=O)C[N+](C)(C)CCCCCn1c(-c2ccc(N(C)C)cc2)nc2c3ccccc3c3ccccc3c21.[Br-] | 2 µg/mL | > 128 µg/mL | 1 µg/mL | 225 µg/mL | 1 µg/mL | 225 | 1 µg/mL | 1 µg/mL | 1 µg/mL | 4 µg/mL | 1 µg/mL | 4 µg/mL | 1 µg/mL | 1 µg/mL
CCNC(=O)C[N+](C)(C)CCCCCn1c(-c2ccc(N(C)C)cc2)nc2c3ccccc3c3ccccc3c21.[Br-] | 32 µg/mL | 128 µg/mL | 32 µg/mL | > 640 µg/mL | 32 µg/mL | > 40 | 32 µg/mL | 32 µg/mL | 32 µg/mL | 32 µg/mL | 16 µg/mL | 32 µg/mL | 16 µg/mL | 32 µg/mL
CCCN(CCC)C(=O)C[N+](C)(C)CCCn1c(-c2ccc(N(C)C)cc2)nc2c3ccccc3c3ccccc3c21.[Br-] | 32 µg/mL | > 128 µg/mL | 32 µg/mL | > 640 µg/mL | 64 µg/mL | > 20 | 32 µg/mL | 64 µg/mL | 32 µg/mL | 32 µg/mL | 16 µg/mL | 32 µg/mL | 32 µg/mL | 32 µg/mL
CC(C)N(C(=O)C[N+](C)(C)CCCn1c(-c2ccc(N(C)C)cc2)nc2c3ccccc3c3ccccc3c21)C(C)C.[Br-] | 2 µg/mL | > 128 µg/mL | 2 µg/mL | 68.5 µg/mL | 2 µg/mL | 8.6 | 2 µg/mL | 4 µg/mL | 2 µg/mL | 2 µg/mL | 2 µg/mL | 2 µg/mL | 2 µg/mL | 2 µg/mL
CN(C)c1ccc(-c2nc3c4ccccc4c4ccccc4c3n2CCC[N+](C)(C)CC(=O)N2CCSCC2)cc1.[Br-] | 64 µg/mL | > 128 µg/mL | 64 µg/mL | 357 µg/mL | 64 µg/mL | 5.6 | 64 µg/mL | 128 µg/mL | 64 µg/mL | 64 µg/mL | 32 µg/mL | 64 µg/mL | 64 µg/mL | 64 µg/mL
CCCCN(CCCC)C(=O)C[N+](C)(C)CCCCn1c(-c2ccc(N(C)C)cc2)nc2c3ccccc3c3ccccc3c21.[Br-] | 2 µg/mL | 64 µg/mL | 0.5 µg/mL | 79.5 µg/mL | 0.5 µg/mL | 79.5 | 1 µg/mL | 1 µg/mL | 1 µg/mL | 1 µg/mL | 0.5 µg/mL | 2 µg/mL | 1 µg/mL | 1 µg/mL
CC(C)N(C(=O)C[N+](C)(C)CCCCn1c(-c2ccc(N(C)C)cc2)nc2c3ccccc3c3ccccc3c21)C(C)C.[Br-] | 8 µg/mL | > 128 µg/mL | 8 µg/mL | > 640 µg/mL | 8 µg/mL | > 80 | 8 µg/mL | 8 µg/mL | 8 µg/mL | 8 µg/mL | 8 µg/mL | 8 µg/mL | 8 µg/mL | 8 µg/mL
CCCCCCNC(=O)C[N+](C)(C)CCCCn1c(-c2ccc(N(C)C)cc2)nc2c3ccccc3c3ccccc3c21.[Br-] | 2 µg/mL | 32 µg/mL | 2 µg/mL | 353 µg/mL | 2 µg/mL | 176 | 1 µg/mL | 1 µg/mL | 2 µg/mL | 2 µg/mL | 1 µg/mL | 2 µg/mL | 2 µg/mL | 2 µg/mL
CCCN(CCC)C(=O)C[N+](C)(C)CCCCCn1c(-c2ccc(N(C)C)cc2)nc2c3ccccc3c3ccccc3c21.[Br-] | 8 µg/mL | 128 µg/mL | 2 µg/mL | 99.4 µg/mL | 2 µg/mL | 49.7 | 2 µg/mL | 2 µg/mL | 4 µg/mL | 4 µg/mL | 2 µg/mL | 4 µg/mL | 2 µg/mL | 2 µg/mL
CC(C)CN(CC(C)C)C(=O)C[N+](C)(C)CCCn1c(-c2ccc(N(C)C)cc2)nc2c3ccccc3c3ccccc3c21.[Br-] | 8 µg/mL | 128 µg/mL | 16 µg/mL | > 320 µg/mL | 16 µg/mL | 40 | 8 µg/mL | 16 µg/mL | 16 µg/mL | 8 µg/mL | 32 µg/mL | 8 µg/mL | 8 µg/mL | 4 µg/mL
CCCN(CCC)C(=O)C[N+](C)(C)CCCCn1c(-c2ccc(N(C)C)cc2)nc2c3ccccc3c3ccccc3c21.[Br-] | 4 µg/mL | 128 µg/mL | 4 µg/mL | 213 µg/mL | 4 µg/mL | 53.3 | 4 µg/mL | 4 µg/mL | 4 µg/mL | 4 µg/mL | 4 µg/mL | 4 µg/mL | 4 µg/mL | 4 µg/mL
CCCCN(CCCC)C(=O)C[N+](C)(C)CCCn1c(-c2ccc(N(C)C)cc2)nc2c3ccccc3c3ccccc3c21.[Br-] | 4 µg/mL | 64 µg/mL | 4 µg/mL | > 640 µg/mL | 4 µg/mL | > 80 | 4 µg/mL | 4 µg/mL | 4 µg/mL | 4 µg/mL | 4 µg/mL | 4 µg/mL | 8 µg/mL | 4 µg/mL
CCCCCCNC(=O)C[N+](C)(C)CCCCCn1c(-c2ccc(N(C)C)cc2)nc2c3ccccc3c3ccccc3c21.[Br-] | 8 µg/mL | 64 µg/mL | 2 µg/mL | 442 µg/mL | 2 µg/mL | 221 | 4 µg/mL | 2 µg/mL | 4 µg/mL | 8 µg/mL | 1 µg/mL | 8 µg/mL | 2 µg/mL | 1 µg/mL
CCCNC(=O)C[N+](C)(C)CCCCCn1c(-c2ccc(N(C)C)cc2)nc2c3ccccc3c3ccccc3c21.[Br-] | 8 µg/mL | 64 µg/mL | 4 µg/mL | 735 µg/mL | 8 µg/mL | 91.9 | 4 µg/mL | 4 µg/mL | 8 µg/mL | 8 µg/mL | 4 µg/mL | 8 µg/mL | 8 µg/mL | 4 µg/mL
CCNC(=O)C[N+](C)(C)CCCn1c(-c2ccc(N(C)C)cc2)nc2c3ccccc3c3ccccc3c21.[Br-] | 64 µg/mL | > 128 µg/mL | 64 µg/mL | > 640 µg/mL | 64 µg/mL | > 10 | 64 µg/mL | 64 µg/mL | 64 µg/mL | 64 µg/mL | 32 µg/mL | 64 µg/mL | 64 µg/mL | 32 µg/mL

Reference: ChEMBL document CHEMBL5512637, “Development of Membrane-Targeting Fluorescent 2-Phenyl-1H-phenanthro[9,10-d]imidazole-Antimicrobial Peptide Mimic Conjugates against Methicillin-Resistant Staphylococcus aureus” (J Med Chem, 2024)
